# Test results published in ChEMBL document CHEMBL1135317, “Halogenated indole-3-acetic acids as oxidatively activated prodrugs with potential for targeted cancer therapy” (2002).
# How the values were obtained:
# [1] = tested on: V79; assay: Cytotoxicity against Chinese hamster lung fibroblasts (V79 cells) was determined by a clonogenic assay (colonies containing >50 cells were counted and surviving fractions (SF) calculated after 2 hr incubation); type: functional, Cricetulus griseus
# [2] = Rate constant for oxidation by HRP (horseradish peroxidase) was determined
# [3] = tested on: V79; assay: Cytotoxicity against Chinese hamster lung fibroblasts (V79 cells) was determined by a clonogenic assay and colonies containing >50 cells were counted and surviving fractions (SF) calculated after 2 h incubation at 50 uM of prodrug; type: functional, Cricetulus griseus
Structure (SMILES),Surviving fraction [1],Rate constant (k) [2],Surviving fraction [3]
O=C(O)Cc1c[nH]c2ccc(OC(F)(F)F)cc12,1,,
COc1ccc2[nH]c(C)c(CC(=O)O)c2c1 [DESCHLOROBENZOYL INDOMETHACIN],0.04,1710 Ie3 M-1 s-1,
COc1ccc2[nH]cc(CC(=O)O)c2c1,0.2,,
O=C(O)Cc1c[nH]c2ccc(-c3ccc(Cl)cc3)cc12,1,103 Ie3 M-1 s-1,
Cc1cc(F)c2[nH]cc(CC(=O)O)c2c1,1,,
O=C(O)Cc1c[nH]c2cc(Cl)ccc12,<1e-05,,0.00085
Cn1cc(CC(=O)O)c2ccccc21,0.01,,
Cc1[nH]c2ccc(F)cc2c1CC(=O)O,1,,
O=C(O)Cc1c[nH]c2cc(Cl)cc(Cl)c12,1,,
O=C(O)Cc1c[nH]c2c(Cl)cccc12,4e-05,,
Cn1cc(CC(=O)O)c2cc(F)ccc21,1,,
Cc1[nH]c2ccccc2c1CC(=O)O,0.004,435 Ie3 M-1 s-1,
O=C(O)Cc1c[nH]c2cccc(F)c12,9e-05,,
O=C(O)Cc1c[nH]c2ccc(F)cc12,<1e-05,,
Cc1ccc2[nH]cc(CC(=O)O)c2c1,1,,
O=C(O)Cc1c[nH]c2ccc(Cl)cc12,0.003,,
O=C(O)Cc1c[nH]c2ccccc12 [INDOLE-3-ACETIC ACID],0.01,,
O=C(O)Cc1c[nH]c2cc(F)ccc12,0.01,,
Cc1ccc(F)c2[nH]cc(CC(=O)O)c12,1,,
Cn1cc(CC(=O)O)c2ccc(Cl)cc21,1,,
O=C(O)Cc1c[nH]c2c(F)cc(Cl)cc12,1,,
O=C(O)Cc1c[nH]c2cccc(Cl)c12,1,,
O=C(O)Cc1c[nH]c2ccc(-c3ccccc3)cc12,1,,
O=C(O)Cc1c[nH]c2ccc(I)cc12,1,,
